The conditions of data set [1]: rat, cited from earlier work.
A short description of data set [2]: Naringenin concentration in milk of breastfeeding mothers on naringenin-restricted diet, before and after 250 ml red grapefruit juice (HPLC after deconjugation). The class given is in vivo. The conditions noted are these: for k el / Cmax / AUC, mean / AUC, median: human milk; for k el: last points; for Cmax / AUC, mean / AUC, median: n 14; for AUC, mean / AUC, median: trapezoidal method. The source says:
Prior to enrollment, each volunteer was informed about the course and aim of the study, and signed the informed consent. They were also provided with oral and written instructions on the diet that disallowed consumption of any naringenin-containing foods and beverages. The volunteers agreed to follow the diet and not to take any vitamin supplements or any other food supplements for the duration of their participation in the study. They followed the diet for a total of 5 days, refraining from eating foods containing larger quantities of naringenin, such as citrus fruits, citrus fruit juices, citrus fruit pulps, tomatoes and tomato-containing food products, aromatic herbs. For the first two days of the study (pre-exposure) the volunteers collected breast milk samples every 12 hours, each in the amount of four to six ml. On the third day of the study they drank a single 250 ml serving of red grapefruit juice (a 250 ml bottle) in the morning on an empty stomach. In this part of the experiment, the volunteers collected breast milk samples at the following time points: 0 (directly before drinking the juice) and 1, 2, 3, 4, 5, 6, 12, 18, 24, 36 hours post-exposure. Milk samples were collected from full breasts. Milk was collected into chemically pure disposable plastic test tubes.
The samples were frozen by the volunteers at –20°C, regularly collected from the volunteers by the investigator, transported in a laboratory deep freezer, and frozen to –80°C until analysis. Each sample was labelled with the volunteer's initials and with the date and time of sampling. During the study, we remained in constant telephone contact with the volunteers. A commercial 100% grapefruit juice originating from ecological farms in Israel, in 250 ml bottles, were used in the study. The juice was purchased from a local grocery wholesaler. All the bottles were labelled with the same lot number.
Naringenin was extracted according to the method described by Song et al. with minor changes. In brief, an aliquot (0.5 ml) of undiluted human milk was defatted two times with 2-ml of hexane. After the lipid removal, 25 μl of L-Ascorbic acid (2.7 mmol/l in ultrapure water), 25 μl of Na2-ethylenediaminetetraacetic acid (2.2 mmol/l in ultrapure water) and 3 ml of pepsin (40 mg/ml in 0.1 N HCl) were added. The samples were incubated in a ThermoMixer C (Eppendorf AG., Germany) for 15 min at 37°C and at 300 rpm. Then, the pH of the sample was adjusted to 4.5 with 1.0 N NaOH and 3.86 kU of β-glucuronidase with sulfatase contaminant was added. Afterwards the samples were incubated for 45 min at 37°C and at 300 rpm in a ThermoMixer C. After deconjugation the potential metabolites (glucuronides and sulfate derivatives) to aglycones using β-glucuronidase/sulfatase treatment, naringenin was extracted with a 3-ml aliquot of ethyl acetate of tree times, dried under vacuum and resuspended in 200 μl of mobile phase B before analysis.
Naringenin analysis was done on a Shimadzu HPLC system (Kyoto, Japan), equipped with binary pump (LC-20 AD), degasser (DGU-20A3), refrigerated autosampler (SIL-20 AC, set at 8°C), a column oven (CTO-20 AC, 30°C), a diode array detector (SPD-M20A) and a mass spectrometry detector (2010EV). Separations were performed on Kinetex XB-C18 column (100×2.1 mm, 2.6 μm particle size, Phenomenex) at 0.2 ml min^−1 flow rate. The mobile phase consisted of A: 0.4% formic acid in ultrapure water and B: 0.4% formic acid, 0.4% isopropyl alcohol in methanol. The initial conditions of gradient program were set at 98:2 (A/B) followed by a linear gradient to 55:45 (A/B) at 15 min, 20:80 (A/B) at 30 min, 98:2 (A/B) at 35 min and at 40 min, stop. The injection volume was 10 μl. Naringenin was quantified at 287 nm. MS spectra were acquired in positive ion mode over the range of m/z 50–500, both using SCAN and SIM acquisition mode (the set of SIM included 273,25 m/z). […]

Data set [3] relates to organic anion transporting polypeptide (OATP). The arrangement: method as in PMID 23794501. As to conditions: cited from earlier work.
Where [4] appears, read: female, human, in vivo, Mean naringenin concentration in human milk.

Read-outs that look alike come from different tables or passages of the source.

As for `O=C1C[C@@H](c2ccc(O)cc2)Oc2cc(O[C@@H]3O[C@H](CO)[C@@H](O)[C@H](O)[C@H]3O)cc(O)c21` [7-glucoside], the “Time at which increase in serum naringenin concentration was observed” value (shortened to “Time at which increase”) in data set [1] (in vivo) is reported as “three”.
Regarding `O=C1C[C@@H](c2ccc(O)cc2)Oc2cc(O)cc(O)c21` [naringenin], the “Range of naringenin concentrations in initial (baseline) milk samples” value in data set [2] (female, human, in vivo) was 420.86 to 1568.89 nmol/L. Moreover, the k el in data set [2] (female, human, in vivo, 250 ml, post-exposure segment, n 11, read-out: Kel (elimination constant), mean (converted)) is 3.89e-06 s⁻¹. Also, the k el in data set [2] (female, human, in vivo, 250 ml, post-exposure segment, n 11, read-out: Kel (elimination constant), median (converted)) is 3.61e-06 s⁻¹. In addition, in data set [2] (female, human, in vivo, 250 ml, post-exposure segment, read-out: Cmax, mean), the highest concentration (Cmax) – broadly, the highest concentration seen after dosing – is 908 nM. The Cmax in data set [2] (female, human, in vivo, 250 ml, post-exposure segment, read-out: Cmax, median) was determined as 714 nM. Further, the “Mean naringenin concentration in human milk” value in data set [2] (female, human, in vivo, 4 h) is 908.253 nmol/L. In data set [2] (female, human, in vivo, 12 h), the “Mean naringenin concentration in human milk” value is 868.960 nmol/L. In data set [2] (setting [4]), this compound returned a concentration at 0 h of 674 nM, a concentration at 1 h of 773 nM, a concentration at 2 h of 651 nM and a concentration at 3 h of 649 nM. Further, in data set [2] (setting [4]), the concentration at 4 h was 908 nM, the concentration at 5 h came to 704 nM, the concentration at 6 h was 650 nM and the concentration at 12 h came to 869 nM. In data set [2] (setting [4]), this compound returned a concentration at 18 h of 772 nM, a concentration at 24 h of 728 nM, a concentration at 36 h of 702 nM and a concentration at -12 h of 702 nM. In data set [2] (setting [4]), this compound gave a concentration at -24 h of 844 nM, a concentration at -36 h of 910 nM and a concentration at -48 h of 823 nM. Moreover, the k el in data set [2] (female, human, in vivo, pre-exposure segment, n 5, read-out: Kel (elimination constant), mean (converted)) was 5.56e-06 s⁻¹. Also, the k el in data set [2] (female, human, in vivo, pre-exposure segment, n 5, read-out: Kel (elimination constant), median (converted)) is 5.56e-06 s⁻¹. Further, in data set [2] (female, human, in vivo, pre-exposure segment, read-out: Cmax, mean), the Cmax amounted to 910 nM. Besides, in data set [2] (female, human, in vivo, pre-exposure segment, read-out: Cmax, median), the Cmax came out at 762 nM. Also, the maximum concentration (Cmax) in data set [2] (post-exposure segment, read-out: Cmax, mean) amounted to 908 nM. For the same compound, in data set [2] (post-exposure, 0 h to 36 h), the “AUC, mean” value was 27419 (nmol/l)*h and the “AUC, median” value is on record as 23715 (nmol/l)*h. Moreover, in data set [2] (pre-exposure, -36 h to 0 h), the “AUC, mean” value is on record as 27455 (nmol/l)*h and the “AUC, median” value is listed as 26515 (nmol/l)*h. Also, in data set [3], the “Inhibition of OATP” value is recorded as “potent inhibitor”. Further, the “Time at which increase” value in data set [1] (after feeding the compound) is “three”.
Turning to `C[C@@H]1O[C@@H](O[C@H]2[C@H](Oc3cc(O)c4c(c3)O[C@H](c3ccc(O)cc3)CC4=O)O[C@H](CO)[C@@H](O)[C@@H]2O)[C@H](O)[C@H](O)[C@H]1O` [naringin, 4’, 5,7-trihydroxyflavanone-7-rhamnoglucoside], the “Time at which increase” value in data set [1] (after feeding the compound) is reported as “ten”.

The record behind these values is publication PMC5628898, “Does consumption of red grapefruit juice alter naringenin concentrations in milk produced by breastfeeding mothers?” (PLoS ONE, 2017).
